# Target: PDE4B (Homo sapiens, UniProt Q07343)
# Assay: Scintillation Proximity Assay (SPA) of PDE4B enzyme activity ([H3]-cAMP cleavage)
# Assay type: biochemical
# Settings: test substance 1 μM; one-hour incubation of [H3]-cAMP with PDE4B enzyme at 30° C.
# Method: The inhibitions (in %) at 1 μM of the individual Example substances are given in the following Table of Examples and were determined as follows:
# The Scintillation Proximity Assay (SPA) (GE Healthcare, No. TRKQ7090) was carried out by using the different affinities of cyclic 3′-5′-adenosinemonophosphate (cAMP, low affinity) and linear 5′-adenosinemonophosphate (AMP, high affinity) for yttrium silicate scintillator beads. The cAMP specific phosphodiesterase (PDE) PDE4B cleaves the 3′-phosphoester bond of tritium-labelled [H3]-cAMP to form [H3]-5′-AMP. This [H3]-AMP accumulates on the scintillator beads because of its higher affinity for them and causes scintillation events (flashes of light) which are measured in a Wallac Microbeta Scintillation Counter.
# The experiment starts with a one-hour incubation of [H3]-cAMP with the PDE4B enzyme in assay buffer at 30° C., in each case once with the Example substance to be tested (in a concentration of 1 μM) and once without the Example substance to be tested.
# After this incubation, the reaction is stopped by the addition of the beads. The beads have an opportunity to settle in the next 45 minutes, then the measurement is carried out in the Scintillation Counter. If the substance is capable of inhibiting the enzymatic activity of the PDE4B, less [H3]-AMP is produced during the incubation phase and fewer scintillation events can be measured.
# Sequence of PDE4B (Q07343 whole entry, species assumed): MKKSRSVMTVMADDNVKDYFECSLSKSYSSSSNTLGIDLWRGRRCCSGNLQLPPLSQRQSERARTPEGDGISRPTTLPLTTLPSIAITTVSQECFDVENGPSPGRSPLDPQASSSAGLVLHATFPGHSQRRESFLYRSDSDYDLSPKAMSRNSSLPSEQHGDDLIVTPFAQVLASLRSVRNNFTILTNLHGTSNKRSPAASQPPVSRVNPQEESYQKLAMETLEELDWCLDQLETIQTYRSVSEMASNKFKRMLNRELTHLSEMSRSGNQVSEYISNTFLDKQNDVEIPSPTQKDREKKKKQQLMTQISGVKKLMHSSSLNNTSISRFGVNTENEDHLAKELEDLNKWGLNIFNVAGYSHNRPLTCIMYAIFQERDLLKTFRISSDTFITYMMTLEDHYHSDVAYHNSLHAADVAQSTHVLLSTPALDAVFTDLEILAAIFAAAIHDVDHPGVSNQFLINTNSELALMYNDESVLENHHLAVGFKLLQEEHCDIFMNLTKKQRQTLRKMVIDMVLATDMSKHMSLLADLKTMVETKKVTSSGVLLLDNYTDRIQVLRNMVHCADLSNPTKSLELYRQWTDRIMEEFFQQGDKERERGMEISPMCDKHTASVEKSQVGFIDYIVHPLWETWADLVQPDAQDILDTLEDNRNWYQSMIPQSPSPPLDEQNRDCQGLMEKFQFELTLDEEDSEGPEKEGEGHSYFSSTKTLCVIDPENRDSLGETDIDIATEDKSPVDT
row,Structure (SMILES),inhibition at 1 µM [%]
1,CN1C[C@@H](Nc2nc(N3CCC(c4cccc(Cl)c4)CC3)nc3c2[S+]([O-])CC3)CCC1=O (stereo partly shown) [Example 54],97
2,Cc1noc(C2CCN(c3nc4c(c(NC5(CO)CC5)n3)[S+]([O-])CC4)CC2)n1 (stereo not shown) [Example 38],92
3,N#Cc1ccc(C2CCN(c3nc4c(c(Nc5cccc(F)c5)n3)[S+]([O-])CC4)CC2)cc1 (stereo not shown) [Example 79],96
4,CS(=O)(=O)N1CC2(CCN(c3nc4c(c(Nc5cccc(F)c5)n3)[S+]([O-])CC4)CC2)c2ccccc21 (stereo not shown) [Example 74],95
5,"CCc1[nH]c2ccc(F)cc2c1C1CCN(c2nc3c(c(Nc4cccc(F)c4)n2)[S+]([O-])CC3)CC1 (stereo not shown) [Example 82, {2-[4-(2-Ethyl-5-Fluoro-1H-Indol-3-Yl)-Piperidin-1-Yl]-5-Oxo-6,7-Dihydro-5H-5λ^4-Thieno[3,2-d]Pyrimidin-4-Yl}-(3-Fluorophenyl)-Amine]",92
6,CC(C)[C@H](CO)Nc1nc(N2CCC(c3nnc4ccccn34)CC2)nc2c1[S+]([O-])CC2 (stereo partly shown) [Example 155],83
7,"CCc1[nH]c2ccc(F)cc2c1C1CCN(c2nc3c(c(N[C@@H](CO)C(C)C)n2)[S+]([O-])CC3)CC1 (stereo partly drawn) [Example 22, (R)-2-{2-[4-(2-Ethyl-5-Fluoro-1H-Indol-3-Yl)-Piperidin-1-Yl]-5-Oxo-6,7-Dihydro-5H-5λ^4-Thieno[3,2-d]Pyrimidin-4-Ylamino}-3-Methylbutan-1-Ol]",86
8,[O-][S+]1CCc2nc(N3CCC(c4cccc(O)c4)CC3)nc(NC3(CO)CC3)c21 (stereo not shown) [Example 32],96
9,CCc1[nH]c2ccc(F)cc2c1C1CCN(c2nc3c(c(N[C@H]4CCC(=O)N(C)C4)n2)[S+]([O-])CC3)CC1 (stereo partly shown) [Example 52],96
10,CN1C[C@@H](Nc2nc(N3CCC(c4noc5ccccc45)CC3)nc3c2[S+]([O-])CC3)CCC1=O (stereo partly shown) [Example 45],97
11,"CN1C[C@@H](Nc2nc(N3CCC(c4ccc(Cl)cc4)CC3)nc3c2S(=O)(=O)CC3)CCC1=O [Example 335, 5-{2-[4-(4-chlorophenyl)-piperidin-1-yl]-5.5-dioxo-6,7-dihydro-5H-5λ^6-thieno[3,2-d]pyrimidin-4-ylamino}-1-methylpiperidin-2-one]",85
12,N#Cc1ccc(C2CCN(c3nc4c(c(NC5(CO)CC5)n3)[S+]([O-])CC4)CC2)cc1 (stereo not shown) [Example 35],95
13,[O-][S+]1CCc2nc(N3CCC(c4c[nH]cn4)CC3)nc(NC3(CO)CC3)c21 (stereo not shown) [Example 27],87

# The remaining lines, values ahead:
row,inhibition at 1 µM [%],Structure (SMILES)
1,89,[O-][S+]1CCc2nc(N3CCC(c4nnc5ccccn45)CC3)nc(NC3CCOCC3)c21 (stereo not shown) [Example 124]
2,95,[O-][S+]1CCc2nc(N3CCC(c4cccc(O)c4)CC3)nc(NC3CCOCC3)c21 (stereo not shown) [Example 61]
3,74,[O-][S+]1CCc2nc(N3CCC4(CC3)OCc3ccccc34)nc(NC3CCOCC3)c21 (stereo not shown) [Example 125]
4,88,"CN1C(=O)Nc2ccccc2C12CCN(c1nc3c(c(NC4CCOCC4)n1)[S+]([O-])CC3)CC2 (stereo not shown) [Example 58, 3′-Methyl-1-(4-(Tetrahydro-2H-Pyran-4-Ylamino)-5-Oxo-6,7-Dihydro-5H-5λ^4-Thieno[3,2-d]Pyrimidin-2-Yl)-1′H-Spiro[Piperidin-4,4′-Quinazolin]-2′(3′H)-One]"
5,97,[O-][S+]1CCc2nc(N3CCC(c4noc5ccccc45)CC3)nc(NC3CCOCC3)c21 (stereo not shown) [Example 60]
6,92,"[O-][S+]1CCc2nc(N3CCC(c4ccc(F)cc4F)CC3)nc(NC3CCOCC3)c21 (stereo not shown) [Example 90, {2-[4-(2,4-Difluorophenyl)-Piperidin-1-Yl]-5-Oxo-6,7-Dihydro-5H-5λ^4-Thieno[3,2-d]Pyrimidin-4-Yl}-(Tetrahydropyran-4-Yl)-Amine]"

# Same assay, conditions: test substance 1 μM; one-hour incubation with [H3]-cAMP at 30° C.
row,Structure (SMILES),inhibition at 1 µM [%]
1,[O-][S+]1CCc2nc(N3CCC(c4cc(-c5cccs5)[nH]n4)CC3)nc(Nc3cccc(F)c3)c21 (stereo not shown) [Example 287],89
2,[O-][S+]1CCc2nc(N3CCC(c4nc(-c5ccccc5)c(-c5ccccc5)o4)CC3)nc(NC3(CO)CC3)c21 (stereo not shown) [Example 280],95
3,"[O-][S+]1CCc2nc(N3CCC(COCc4ccccc4)(c4ccc(Cl)cc4)CC3)nc(Nc3cccc(F)c3)c21 (stereo not shown) [Example 306, {2-[4-benzyloxymethyl-4-(4-chlorophenyl)-piperidin-1-yl]-5-oxo-6,7-dihydro-5H-5λ^4-thieno[3,2-d]pyrimidin-4-yl}-(3-fluorophenyl)-amine]",89
4,"CN1C[C@@H](Nc2nc(N3CCC(C)(c4nc5cc(F)ccc5o4)CC3)nc3c2[S+]([O-])CC3)CCC1=O (stereo partly shown) [Example 197, 5-{2-[4-(5-fluorobenzoxazol-2-yl)-4-methylpiperidin-1-yl]-5-oxo-6,7-dihydro-5H-5λ^4-thieno[3,2-d]pyrimidin-4-ylamino}-1-methylpiperidin-2-one]",96
5,CC(C)[C@H](CO)Nc1nc(N2CCC(O)(c3ccc(Cl)cc3)CC2)nc2c1[S+]([O-])CC2 (stereo partly shown) [Example 296],81
6,CN1C[C@@H](Nc2nc(N3CCC(Oc4ccc(Cl)cc4)CC3)nc3c2[S+]([O-])CC3)CCC1=O (stereo partly shown) [Example 265],89
7,"Cc1nc(C2CCN(c3nc4c(c(NC5(CO)CC5)n3)[S+]([O-])CC4)CC2)oc1-c1ccc(Cl)cc1 (stereo not shown) [Example 283, [1-(2-{4-[5-(4-chlorophenyl)-4-methyloxazol-2-yl]-piperidin-1-yl}-5-oxo-6,7-dihydro-5H-5λ^4-thieno[3,2-d]pyrimidin-4-ylamino)-cyclopropyl]-methanol]",89
8,CN1C[C@@H](Nc2nc(N3CCC(Oc4ccncc4)CC3)nc3c2[S+]([O-])CC3)CCC1=O (stereo partly shown) [Example 264],94
9,[O-][S+]1CCc2nc(N3CCC(c4nc5c(o4)CCCC5)CC3)nc(NC3CCOCC3)c21 (stereo not shown) [Example 329],95
10,[O-][S+]1CCc2nc(N3CCC(Oc4ccc(F)cc4)CC3)nc(Nc3cccc(F)c3)c21 (stereo not shown) [Example 165],92
11,"CC(C)(C)OC(=O)NC1CC1Nc1nc(N2CCC(c3ccc(Cl)cc3)CC2)nc2c1[S+]([O-])CC2 (stereo not shown) [Example 231, tert-butyl (2-{2-[4-(4-chlorophenyl)-piperidin-1-yl]-5-oxo-6,7-dihydro-5H-5λ^4-thieno[3,2-d]pyrimidin-4-ylamino}-cyclopropyl)-carbamidate]",94

# Now from value to molecule:
row,inhibition at 1 µM [%],Structure (SMILES)
1,89,CS(=O)(=O)NCC1(c2ccccc2)CCN(c2nc3c(c(NC4(CO)CC4)n2)[S+]([O-])CC3)CC1 (stereo not shown) [Example 324]
2,82,"O=C(N1CCc2ccc(OC3CCN(c4nc5c(c(NC6CCOCC6)n4)[S+]([O-])CC5)CC3)cc2CC1)C(F)(F)F (stereo not shown) [Example 182, 2,2,2-Trifluoro-1-(7-{1-[5-Oxo-4-(Tetrahydropyran-4-Ylamino)-6,7-Dihydro-5H-5λ^4-Thieno[3,2-d]Pyrimidin-2-Yl]-Piperidin-4-Yloxy}-1,2,4,5-Tetrahydrobenzo[d]Azepin-3-Yl)-Ethanone]"
3,95,[O-][S+]1CCc2nc(N3CCC(c4nnc(-c5ccccc5)o4)CC3)nc(NC3CCOCC3)c21 (stereo not shown) [Example 317]
4,94,Cc1cn(C)nc1CN(C)C(=O)c1ccc(OC2CCN(c3nc4c(c(NC5CCOCC5)n3)[S+]([O-])CC4)CC2)cc1 (stereo not shown) [Example 239]
5,95,Cc1cn(C)nc1CN(C)C(=O)c1ccc(C2CCN(c3nc4c(c(NC5CCOCC5)n3)[S+]([O-])CC4)CC2)cc1 (stereo not shown) [Example 226]
6,80,CC(C)(NC(=O)c1ccc(C2CCN(c3nc4c(c(NC5CCOCC5)n3)[S+]([O-])CC4)CC2)cc1)c1ccncc1 (stereo not shown) [Example 223]
7,95,CC(C)c1ccccc1OC1CCN(c2nc3c(c(N[C@H]4CCC(=O)N(C)C4)n2)[S+]([O-])CC3)CC1 (stereo partly shown) [Example 266]
8,87,Cc1nc(C2CCN(c3nc4c(c(NC5CCOCC5)n3)[S+]([O-])CC4)CC2)oc1-c1ccc(Cl)cc1 (stereo not shown) [Example 282]
9,96,"COC(=O)C1(c2ccccc2)CCN(c2nc3c(c(N[C@H]4CCC(=O)N(C)C4)n2)[S+]([O-])CC3)CC1 (stereo partly shown) [Example 205, methyl 1-[4-(1-methyl-6-oxopiperidin-3-ylamino)-5-oxo-6,7-dihydro-5H-5λ^4-thieno[3,2-d]pyrimidin-2-yl]-4-phenylpiperidine-4-carboxylate]"
10,95,[O-][S+]1CCc2nc(N3CCC(c4nc5cc(F)ccc5[nH]4)CC3)nc(NC3CCOCC3)c21 (stereo not shown) [Example 209]
11,88,COCC(=O)NCC1(c2ccccc2)CCN(c2nc3c(c(NC4CCOCC4)n2)[S+]([O-])CC3)CC1 (stereo not shown) [Example 217]
12,91,[O-][S+]1CCc2nc(N3CCC(c4nnc(-c5ccccc5)o4)CC3)nc(NC3(CO)CC3)c21 (stereo not shown) [Example 318]
13,91,[O-][S+]1CCc2nc(N3CCC(c4nc(-c5ccccc5)no4)CC3)nc(NC3(CO)CC3)c21 (stereo not shown) [Example 311]
14,93,[O-][S+]1CCc2nc(N3CCC(c4n[nH]c5ccccc45)CC3)nc(NC3(CO)CC3)c21 (stereo not shown) [Example 220]
15,95,CC(C)c1ccccc1OC1CCN(c2nc3c(c(NC4CCOCC4)n2)[S+]([O-])CC3)CC1 (stereo not shown) [Example 272]
16,86,N#CC1(c2ccc(F)cc2)CCN(c2nc3c(c(NC4CCOCC4)n2)[S+]([O-])CC3)CC1 (stereo not shown) [Example 293]

# Reference: patent US8754073B2, “Substituted piperazino-dihydrothienopyrimidines” (Boehringer Ingelheim International GmbH, priority 2007, dated 2014)
